Reference: US8778923B2, “GLP-1 receptor modulators” (Receptos, Inc., priority 2011, dated 2014)

Target: T1, GLP-1R (Homo sapiens, UniProt P43220)
T1 construct: host or cells: CRE-bla CHO-K1
Assay: EC20 GLP-1(9-36) PAM cAMP assay: dose response of compound in the presence of fixed concentration of GLP-1(9-36)
Type: cell-based
Conditions: GLP-1R CRE-bla CHO-K1 cells, compound dose response in presence of fixed concentration of GLP-1(9-36)
Procedure: EC20 GLP-1(9-36) PAM cAMP Assay: Dose Response of Compound in the Presence of Fixed Concentration of GLP-1 (9-36).
GLP-1R CRE-bla CHO-K1 cells cultured in growth medium (DMEM-High glucose, 10% dialyzed FBS, 0.1 mM NEAA, 25 mM Hepes, 100 U/mL penicillin/100 μg/mL streptomycin, 5 μg/mL Blasticidin, 600 μg/mL Hygromycin) were tryspsinized and plated in suspension into 384 well white flat bottom plates at 5000 cells/well in 12 μL assay buffer (Hanks Balanced Salt solution, 10 mM Hepes, 0.1% BSA, pH 7.4). A 5× compound dose response curve (12-point) was generated in assay buffer containing 1.5 mM IBMX, 12.5% DMSO. GLP-1(9-36) was diluted to 4.2 μM in assay buffer containing 1.5 mM IBMX and 12.5% DMSO. The 5× compound dose response was added (3 μL), followed by 0.5 μL of GLP-1(9-36) and cells were incubated for 30 min at 37° C. Direct detection of cAMP was carried out using DiscoveRx HitHunter cAMP kit according to manufacturer's instructions and luminescence was read using a SpectraMax M5 plate reader. Luminescence was converted to total cAMP using a cAMP standard curve and data was analyzed by non-linear regression to determine the EC50 and Emax.
GLP-1(7-36): […]-NH2. GLP-1(9-36): […]-NH2. GLP-1(7-36) was purchased from GenScript. GLP-1(9-36) was purchased from Biopeptide Co., Inc.

T1 sequence (P43220 24-463): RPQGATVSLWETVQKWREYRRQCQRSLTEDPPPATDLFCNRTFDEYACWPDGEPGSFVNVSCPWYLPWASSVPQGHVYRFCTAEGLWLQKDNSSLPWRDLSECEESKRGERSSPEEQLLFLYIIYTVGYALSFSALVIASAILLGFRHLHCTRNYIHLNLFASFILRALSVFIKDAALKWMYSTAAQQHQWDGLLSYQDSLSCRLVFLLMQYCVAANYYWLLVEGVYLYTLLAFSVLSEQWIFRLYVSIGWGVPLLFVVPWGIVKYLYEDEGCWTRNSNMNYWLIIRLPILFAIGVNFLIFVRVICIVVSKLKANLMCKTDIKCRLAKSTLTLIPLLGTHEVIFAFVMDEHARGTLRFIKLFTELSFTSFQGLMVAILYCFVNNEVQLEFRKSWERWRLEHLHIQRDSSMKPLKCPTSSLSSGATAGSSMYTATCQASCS
T1 sequence (P01275 100-127 partner limits assumed): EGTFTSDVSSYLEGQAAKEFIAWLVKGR

| SMILES | EC50 |
| --- | --- |
| CC(C)(C)c1ccc(-c2cnc(-c3ccc(C[C@H](NC(=O)c4ccc(C(C)(C)C)s4)C(=O)N4CCC[C@H]4C(=O)O)cc3)nc2)cc1 [Compound 362] | 2500 to 5000 nM |
| CC(C)(C)c1ccc(C(=O)N[C@@H](Cc2ccc(-c3noc(-c4ccc(S(C)(=O)=O)cc4)n3)cc2)C(=O)O)cc1 [Compound 41] | 2500 to 5000 nM |
| CC(C)(C)c1ccc(C(=O)N[C@@H](Cc2ccc(-c3noc(-c4ccc(-c5ccc(F)c(F)c5)cc4)n3)cc2)C(=O)O)cc1 [Compound 22] | 2500 to 5000 nM |
| CC(C)(C)c1ccc(-c2ccc(-c3ccc(C[C@H](NC(=O)c4ccc(C(C)(C)C)s4)C(=O)O)cc3)nc2)cc1 [Compound 278] | 2500 to 5000 nM |
| Cc1ccc(-c2ccc(-c3cnc(-c4ccc(C[C@H](NC(=O)c5ccc(C(C)(C)C)s5)C(=O)O)cc4)nc3)cc2)cc1 [Compound 246] | 800 to 2500 nM |
| CCCCCCCOc1ccc(-c2cnc(-c3ccc(C[C@@H](CC(=O)O)NC(=O)c4ccc(C(C)(C)C)cc4)cc3)nc2)cc1 [Compound 291, (S)-3-(4-(tert-butyl)benzamido)-4-(4-(5-(4-(heptyloxy)phenyl)pyrimidin-2-yl)phenyl)butanoic acid] | 800 to 2500 nM |
| CC(C)(C)c1ccc(C(=O)N[C@@H](Cc2ccc(-c3ncc(-c4ccc(F)cc4F)cn3)cc2)C(=O)O)cc1 [Compound 208] | 2500 to 5000 nM |
| CC(C)(C)c1ccc(C(=O)N[C@@H](Cc2ccc(-c3noc(-c4ccc(-c5ccccc5F)cc4)n3)cc2)C(=O)O)cc1 [Compound 19] | 800 to 2500 nM |
| COc1cccc(-c2cnc(-c3ccc(C[C@H](NC(=O)c4ccc(C(C)(C)C)cc4)C(=O)O)cc3)nc2)c1 [Compound 215] | 2500 to 5000 nM |
| CNc1cccc(-c2cnc(-c3ccc(C[C@H](NC(=O)c4ccc(C(C)(C)C)cc4)C(=O)O)cc3)nc2)c1 [Compound 234] | 5000 to 10000 nM |
| CCCCCCCOc1cccc(-c2cnc(-c3ccc(C[C@H](NC(=O)c4ccc(C(C)(C)C)cc4)C(=O)O)cc3)nc2)c1 [Compound 219] | 800 to 2500 nM |
| CN(CCO)c1ccc(-c2nc(-c3ccc(C[C@H](NC(=O)c4ccc(C(C)(C)C)cc4)C(=O)O)cc3)no2)cc1 [Compound 55] | 2500 to 5000 nM |
| CC(C)(C)c1ccc(C(=O)N[C@@H](Cc2ccc(-c3ncc(-c4ccc5ccccc5c4)cn3)cc2)C(=O)O)s1 [Compound 245] | 800 to 2500 nM |

Other lines, results leading:

| EC50 | SMILES |
| --- | --- |
| 800 to 2500 nM | CCCCCCCOc1ccc(-c2cnc(-c3ccc(C[C@H](NC(=O)c4ccc(C(C)(C)C)s4)C(=O)N4CCNC(C(=O)O)C4)cc3)nc2)cc1 (stereo partly drawn) [Compound 339] |
| 800 to 2500 nM | CCCCOc1ccc(-c2cnc(-c3ccc(C[C@H](NC(=O)c4ccc(C(C)(C)C)cc4)C(=O)O)cc3)nc2)cc1 [Compound 223] |
| 800 to 2500 nM | CC(C)Oc1ccc(-c2cnc(-c3ccc(C[C@H](NC(=O)c4ccc(C(C)(C)C)s4)C(=O)O)cc3)nc2)cc1 [Compound 241] |
| 800 to 2500 nM | CCCCCCCOc1ccc(N2CCCN(c3ccc(C[C@H](NC(=O)c4ccc(C(C)(C)C)cc4)C(=O)O)cc3)CC2)cc1 [Compound 268] |
| 800 to 2500 nM | CCCCCCCOc1ccc(-c2cnc(-c3ccc(C[C@H](NC(=O)c4ccc(CC)s4)C(=O)O)cc3)nc2)cc1 [Compound 137] |
| 800 to 2500 nM | CCCCCCCOc1ccc(-c2cnc(-c3ccc(C[C@H](NC(=O)c4ccc(C(C)=O)cc4)C(=O)O)cc3)nc2)cc1 [Compound 113] |
| 800 to 2500 nM | CC(=O)c1ccc(-c2nc(-c3ccc(C[C@H](NC(=O)c4ccc(C(C)(C)C)cc4)C(=O)O)cc3)no2)cc1 [Compound 45] |
| < 800 nM | CCCCCCCOc1ccc(-c2cnc(-c3ccc(C[C@H](NC(=O)c4ccccc4C)C(=O)O)cc3)nc2)cc1 [Compound 119] |
| < 800 nM | CCCCCCCOc1ccc(-c2cnc(-c3ccc(C[C@H](NC(=O)c4cc(C(C)C)no4)C(=O)O)cc3)nc2)cc1 [Compound 130] |
| < 800 nM | CCCCCCCOc1ccc(-c2cnc(-c3ccc(C[C@H](NC(=O)c4ccc(C(C)C)cc4)C(=O)N[C@@H](CO)C(=O)O)cc3)nc2)cc1 [Compound 309] |
| < 800 nM | CCCCCCCOc1ccc(-c2cnc(-c3ccc(C[C@@H](NC(=O)c4ccc(C(C)(C)C)s4)C(=O)N[C@@H](CCC(N)=O)C(=O)O)cc3)nc2)cc1 [Compound 377] |
